We go through 21 compounds from patent publication US5945438A, “Triazole derivative and pharmaceutical comprising the same as an effective ingredient” (SS Pharmaceutical Co., Ltd., priority 1995, dated 1999).

The test system of one assay is C. albicans ATCC 44859. As to the kind of experiment: In vitro antifungal activity against Candida albicans. The following applies: C. albicans controlled to a yeast-type (no hyphal growth), Eagle's MEM medium with 10% serum, 2.0×10^4 cells/ml, 37° C.; for MIC: Candida albicans, read-out: Minimum inhibitory concentration. The class given is cell-based. On the procedure:
In vitro antifungal activity against Candida albicans
Incubation was then conducted at 37° C. for 20 hours using a CO2 gas incubator.

The test system of another assay is A. fumigatus IFM 40808. Description: In vitro antifungal activity against Aspergillus fumigatus. The following applies: RPMI MEDIUM 1640, pH 7, 3.0×10^4 cells/ml, 35° C.; for MIC: Aspergillus fumigatus, read-out: Minimum inhibitory concentration. It is filed as cell-based. Here is the method:
In vitro antifungal activity against Aspergillus fumigatus
Incubation was then conducted at 35° C. for 24 hours.

Setting [1] is: IFM40808, 24 h, pH 7, growth of about 75% of hyphae inhibited.
Where [2] appears, read: growth of about 75% of hyphae inhibited, 24 hours.

In brackets after ≈: the same amount, converted by molar mass. Read-outs that look alike come from different tables or passages of the source.

With `CSC(F)(F)C(O)(Cn1cncn1)c1ccc(F)cc1F` (racemic) [Compound(1a-1), 3,3-difluoro-2-(2',4'-difluorophenyl)-3-methylthio-1-(1H-1,2,4-triazol-1-yl)propan-2-ol], the MIC in the assay with C. albicans ATCC 44859 (ATCC44859, 20 h) was 0.0078 µg/mL (≈ 0.0243 µM); in the assay with A. fumigatus IFM 40808 (setting [1]), 4 µg/mL (≈ 12.4 µM).

Take `CSC(F)(F)C(O)(Cn1cncn1)c1ccc(Cl)cc1Cl` (racemic) [Compound(1a-3), 2-(2',4'-dichlorophenyl)-3,3-difluoro-3-methylthio-1-(1H-1,2,4-triazol-1-yl)propan-2-ol]: the MIC came out at 0.0039 µg/mL (≈ 0.011 µM) in the assay on C. albicans ATCC 44859 (ATCC44859, 20 h) and 2 µg/mL (≈ 5.65 µM) with A. fumigatus IFM 40808 (setting [1]).

As for `CS(=O)(=O)C(F)(F)C(O)(Cn1cncn1)c1ccc(F)cc1` (racemic) [Compound(1c-2), 3,3-difluoro-2-(4'-fluorophenyl)-3-methylsulfonyl-1-(1H-1,2,4-triazol-1-yl)propan-2-ol], the MIC is 0.25 µg/mL (≈ 0.746 µM) with C. albicans ATCC 44859 (ATCC44859, 20 h) and more than 64 µg/mL with A. fumigatus IFM 40808 (setting [1]).

For `CS(=O)(=O)C(F)(F)C(O)(Cn1cncn1)c1ccc(C(F)(F)F)cc1` (racemic) [Compound(1c-4), 3,3-difluoro-3-methylsulfonyl-1-(1H-1,2,4-triazol-1-yl)-2-[4'-(trifluoromethyl)phenyl]propan-2-ol], the MIC was 0.125 µg/mL (≈ 0.324 µM) in the assay on C. albicans ATCC 44859 (ATCC44859, 20 h) and more than 64 µg/mL in the assay with A. fumigatus IFM 40808 (setting [1]).

For the compound `C[S+]([O-])C(F)(F)C(O)(Cn1cncn1)c1ccc(F)cc1F` (single isomer, unassigned) [Compound(1b-1A), 3,3-difluoro-2-(2',4'-difluorophenyl)-3-methylsulfinyl-1-(1H-1,2,4-triazol-1-yl)propan-2-ol], the Minimum inhibitory concentration in the assay on C. albicans ATCC 44859 (20 hours) was determined as 0.0625 µg/mL (≈ 0.185 µM). In addition, the MIC in the assay on A. fumigatus IFM 40808 (setting [1]) stood at 64 µg/mL (≈ 190 µM).

Take `C[S+]([O-])C(F)(F)C(O)(Cn1cncn1)c1ccc(F)cc1F` (single isomer, unassigned) [Compound(1b-1B), 3,3-difluoro-2-(2',4'-difluorophenyl)-3-methylsulfinyl-1-(1H-1,2,4-triazol-1-yl)propan-2-ol]: the figures for the Minimum inhibitory concentration in the assay on C. albicans ATCC 44859 (20 hours) and in the assay with A. fumigatus IFM 40808 (setting [2]) were 0.5 µg/mL (≈ 1.48 µM) and more than 64 µg/mL, respectively.

`CS(=O)(=O)C(F)(F)C(O)(Cn1cncn1)c1ccc(F)cc1F` (single isomer, unassigned; (+)) [(+)-Compound(1c-1), (+)-3,3-difluoro-2-(2',4'-difluorophenyl)-3-methylsulfonyl-1-(1H-1,2,4-triazol-1-yl)propan-2-ol]: the figures for the Minimum inhibitory concentration with C. albicans ATCC 44859 (20 hours) and in the assay on A. fumigatus IFM 40808 (setting [2]) were more than 1 µg/mL and more than 64 µg/mL, respectively.

With `CS(=O)(=O)C(F)(F)C(O)(Cn1cncn1)c1ccc(F)cc1` (single isomer, unassigned; (+)) [(+)-Compound(1c-2), (+)-3,3-difluoro-2-(4'-fluorophenyl)-3-methylsulfonyl-1-(1H-1,2,4-triazol-1-yl)propan-2-ol], in the assay on C. albicans ATCC 44859 (20 hours), the Minimum inhibitory concentration was more than 1 µg/mL. Also, the MIC in the assay with A. fumigatus IFM 40808 (setting [1]) was more than 64 µg/mL.

In the case of `CS(=O)(=O)C(F)(F)C(O)(Cn1cncn1)c1ccc(Cl)cc1Cl` (single isomer, unassigned; (+)) [(+)-Compound(1c-3), (+)-2-(2',4'-dichlorophenyl)-3,3-difluoro-3-methylsulfonyl-1-(1H-1,2,4-triazol-1-yl)propan-2-ol], the Minimum inhibitory concentration was more than 1 µg/mL in the assay on C. albicans ATCC 44859 (20 hours) and more than 64 µg/mL in the assay on A. fumigatus IFM 40808 (setting [2]).

In turn, `CS(=O)(=O)C(F)(F)C(O)(Cn1cncn1)c1ccc(C(F)(F)F)cc1` (single isomer, unassigned; (+)) [(+)-Compound(1c-4), (+)-3,3-difluoro-3-methylsulfonyl-1-(1H-1,2,4-triazol-1-yl)-2-[4'-(trifluoromethyl)phenyl]propan-2-ol] yielded a Minimum inhibitory concentration with C. albicans ATCC 44859 (20 hours) of more than 1 µg/mL. In addition, the MIC in the assay on A. fumigatus IFM 40808 (setting [1]) was more than 64 µg/mL.

On to `CS(=O)(=O)C(F)(F)C(O)(Cn1cncn1)c1ccc(F)cc1F` (single isomer, unassigned; (-)) [(-)-Compound(1c-1), (-)-3,3-difluoro-2-(2',4'-difluorophenyl)-3-methylsulfonyl-1-(1H-1,2,4-triazol-1-yl)propan-2-ol], for which the figures for the Minimum inhibitory concentration in the assay with C. albicans ATCC 44859 (20 hours) and in the assay with A. fumigatus IFM 40808 (setting [2]) were 0.0313 µg/mL (≈ 0.0886 µM) and 16 µg/mL (≈ 45.3 µM), respectively.

Turning to `CS(=O)(=O)C(F)(F)C(O)(Cn1cncn1)c1ccc(F)cc1` (single isomer, unassigned; (-)) [(-)-Compound(1c-2), (-)-3,3-difluoro-2-(4'-fluorophenyl)-3-methylsulfonyl-1-(1H-1,2,4-triazol-1-yl)propan-2-ol], the Minimum inhibitory concentration in the assay on C. albicans ATCC 44859 (20 hours) is 0.0625 µg/mL (≈ 0.186 µM); in the assay on A. fumigatus IFM 40808 (setting [2]) it was 64 µg/mL (≈ 191 µM).

As for `CS(=O)(=O)C(F)(F)C(O)(Cn1cncn1)c1ccc(Cl)cc1Cl` (single isomer, unassigned; (-)) [(-)-Compound(1c-3), (-)-2-(2',4'-dichlorophenyl)-3,3-difluoro-3-methylsulfonyl-1-(1H-1,2,4-triazol-1-yl)propan-2-ol], the Minimum inhibitory concentration in the assay on C. albicans ATCC 44859 (20 hours) is 0.0078 µg/mL (≈ 0.0202 µM). Besides, the MIC with A. fumigatus IFM 40808 (setting [1]) is 32 µg/mL (≈ 82.9 µM).

Take `CS(=O)(=O)C(F)(F)C(O)(Cn1cncn1)c1ccc(C(F)(F)F)cc1` (single isomer, unassigned; (-)) [(-)-Compound(1c-4), (-)-3,3-difluoro-3-methylsulfonyl-1-(1H-1,2,4-triazol-1-yl)-2-(4'-(trifluoromethyl)phenyl]propan-2-ol]: the results for the Minimum inhibitory concentration with C. albicans ATCC 44859 (20 hours) and in the assay on A. fumigatus IFM 40808 (setting [2]) were 0.0625 µg/mL (≈ 0.162 µM) and more than 64 µg/mL, respectively.

Take `CS(=O)(=O)C(F)(F)C(O)(Cn1cncn1)c1ccc(F)cc1F` (stereo not drawn) [Compound (1c-1), 3,3-difluoro-2-(2',4'-difluorophenyl)-3-methylsulfonyl-1-(1H-1,2,4-triazol-1-yl)propan-2-ol]: the MIC with C. albicans ATCC 44859 (ATCC44859, 20 h) came out at 0.0625 µg/mL (≈ 0.177 µM); with A. fumigatus IFM 40808 (setting [1]), 32 µg/mL (≈ 90.6 µM).

Take `CSC(F)(F)C(O)(Cn1cncn1)c1ccc(F)cc1` (stereo not drawn) [Compound(1a-2), 3,3-difluoro-2-(4'-fluorophenyl)-3-methylthio-1-(1H-1,2,4-triazol-1-yl)propan-2-ol]: the MIC in the assay with C. albicans ATCC 44859 (ATCC44859, 20 h) turned out to be 0.0625 µg/mL (≈ 0.206 µM); with A. fumigatus IFM 40808 (setting [1]) it was 16 µg/mL (≈ 52.8 µM).

`CSC(F)(F)C(O)(Cn1cncn1)c1ccc(C(F)(F)F)cc1` (stereo not drawn) [Compound(1a-4), 3,3-difluoro-3-methylthio-1-(1H-1,2,4-triazol-1-yl)-2-[4'-(trifluoromethyl)phenyl]propan-2-ol]: the MIC in the assay on C. albicans ATCC 44859 (ATCC44859, 20 h) worked out at 0.0156 µg/mL (≈ 0.0442 µM); in the assay with A. fumigatus IFM 40808 (setting [1]) it was 16 µg/mL (≈ 45.3 µM).

Regarding `CSC(F)(F)C(O)(Cn1cncn1)c1ccccc1` (stereo not drawn) [Compound(1a-5), 3,3-difluoro-3-methylthio-2-phenyl-1-(1H-1,2,4-triazol-1-yl)propan-2-ol], the MIC came out at 0.125 µg/mL (≈ 0.438 µM) in the assay on C. albicans ATCC 44859 (ATCC44859, 20 h) and 16 µg/mL (≈ 56.1 µM) in the assay with A. fumigatus IFM 40808 (setting [1]).

Take `CS(=O)(=O)C(F)(F)C(O)(Cn1cncn1)c1ccc(Cl)cc1Cl` (stereo not drawn) [Compound(1c-3), 2-(2',4'-dichlorophenyl)-3,3-difluoro-3-methylsulfonyl-1-(1H-1,2,4-triazol-1-yl)propan-2-ol]: the MIC was determined as 0.0313 µg/mL (≈ 0.081 µM) in the assay on C. albicans ATCC 44859 (ATCC44859, 20 h) and 32 µg/mL (≈ 82.9 µM) in the assay with A. fumigatus IFM 40808 (setting [1]).

Turning to `CS(=O)(=O)C(F)(F)C(O)(Cn1cncn1)c1ccccc1` (stereo not drawn) [Compound(1c-5), 3,3-difluoro-3-methylsulfonyl-2-phenyl-1-(1H-1,2,4-triazol-1-yl)propan-2-ol], the MIC with C. albicans ATCC 44859 (ATCC44859, 20 h) was 0.5 µg/mL (≈ 1.58 µM); in the assay with A. fumigatus IFM 40808 (setting [1]) it was more than 64 µg/mL.

Turning to `OC(Cn1cncn1)(Cn1cncn1)c1ccc(F)cc1F` [Fluconazole, reference compound], the MIC was 0.25 µg/mL (≈ 0.816 µM) in the assay with C. albicans ATCC 44859 (ATCC44859, 20 hours) and more than 64 µg/mL with A. fumigatus IFM 40808 (IFM40808, growth of about 75% of hyphae inhibited, 24 hours).
